{
  "source": "patent US4517181A",
  "about": "“Mammalian PGRF” (The Salk Institute for Biological Studies, priority 1982, dated 1985)",
  "tested_on": "cells of rat pituitary glands",
  "test": "in vitro GH release, rat pituitary cell monolayer culture bioassay (ir GH by radioimmunoassay)",
  "type": "cell-based",
  "conditions": "for biological potency (additional testing): compared with PGRF (1-40)",
  "method": "To determine the effectiveness of the peptides to promote the release of growth hormone, in vitro assays are carried out using synthetic PGRF (1-40) of Example II in side-by-side comparison with equimolar concentrations of the extracted and purified native PGRF (1-40) and of a GRF Reference Standard having a known effectiveness to promote the release of growth hormone from pituitary cells. The GRF Reference standard is described and defined in Brazeau, et al., Endocrinology, Vol. 110, A538(1982) and is an amount of a preparation of rat hypothalamic origin that produces a half-maximal response in terms of GH release in a pituitary cell monolayer bioassay. Cultures are used which include cells of rat pituitary glands removed some four to five days previously. Both cultures of a defined standard medium and cultures which are considered optimal for the secretion of growth hormone are used for the comparative testing, in the general manner described in Brazeau, et al. Regulatory Peptides, 1, 255, 1981. Incubation with the substance to be tested is carried out for 3 to 4 hours, and aliquots of the culture medium are removed and processed to measure their contents in inmunoreactive GH(ir GH) by a well-characterized radioimmunoassay.\nThe in vitro assays described in Example VII are repeated using Native PGRF(1-40) and Native PGRF(1-44) and the results are set forth in following Table III: […]",
  "data": [
    {"smiles": "CC[C@H](C)[C@H](NC(=O)[C@H](C)NC(=O)[C@H](CC(=O)O)NC(=O)[C@H](C)NC(=O)[C@@H](N)Cc1ccc(O)cc1)C(=O)N[C@@H](Cc1ccccc1)C(=O)N[C@H](C(=O)N[C@@H](CC(N)=O)C(=O)N[C@@H](CO)C(=O)N[C@@H](Cc1ccc(O)cc1)C(=O)N[C@@H](CCCNC(=N)N)C(=O)N[C@@H](CCCCN)C(=O)N[C@H](C(=O)N[C@@H](CC(C)C)C(=O)NCC(=O)N[C@@H](CCC(N)=O)C(=O)N[C@@H](CC(C)C)C(=O)N[C@@H](CO)C(=O)N[C@@H](C)C(=O)N[C@@H](CCCNC(=N)N)C(=O)N[C@@H](CCCCN)C(=O)N[C@@H](CC(C)C)C(=O)N[C@@H](CC(C)C)C(=O)N[C@@H](CCC(N)=O)C(=O)N[C@@H](CC(=O)O)C(=O)N[C@H](C(=O)N[C@@H](CCSC)C(=O)N[C@@H](CO)C(=O)N[C@@H](CCCNC(=N)N)C(=O)N[C@@H](CCC(N)=O)C(=O)N[C@@H](CCC(N)=O)C(=O)NCC(=O)N[C@@H](CCC(=O)O)C(=O)N[C@@H](C)C(=O)N[C@@H](CC(N)=O)C(=O)N[C@@H](CCC(N)=O)C(=O)N[C@@H](CCC(=O)O)C(=O)N[C@@H](CO)C(=O)NCC(=O)N[C@@H](CCCNC(=N)N)C(=O)O)[C@@H](C)CC)C(C)C)[C@@H](C)O", "note": "[Example IV]", "values": [
      {"measurement": "biological potency (additional testing)", "result": "substantially the same biological potency as the native PGRF (1-40)"}
    ]},
    {"smiles": "CC[C@H](C)[C@H](NC(=O)[C@H](C)NC(=O)[C@H](CC(=O)O)NC(=O)[C@H](C)NC(=O)[C@@H](N)Cc1ccc(O)cc1)C(=O)N[C@@H](Cc1ccccc1)C(=O)N[C@H](C(=O)N[C@@H](CC(N)=O)C(=O)N[C@@H](CO)C(=O)N[C@@H](Cc1ccc(O)cc1)C(=O)N[C@@H](CCCNC(=N)N)C(=O)N[C@@H](CCCCN)C(=O)N[C@H](C(=O)N[C@@H](CC(C)C)C(=O)NCC(=O)N[C@@H](CCC(N)=O)C(=O)N[C@@H](CC(C)C)C(=O)N[C@@H](CO)C(=O)N[C@@H](C)C(=O)N[C@@H](CCCNC(=N)N)C(=O)N[C@@H](CCCCN)C(=O)N[C@@H](CC(C)C)C(=O)N[C@@H](CC(C)C)C(=O)N[C@@H](CCC(N)=O)C(=O)N[C@@H](CC(=O)O)C(=O)N[C@H](C(=O)N[C@@H](CCSC)C(=O)N[C@@H](CO)C(=O)N[C@@H](CCCNC(=N)N)C(=O)N[C@@H](CCC(N)=O)C(=O)N[C@@H](CCC(N)=O)C(=O)NCC(=O)N[C@@H](CCC(=O)O)C(=O)N[C@@H](CO)C(=O)N[C@@H](CC(N)=O)C(=O)N[C@@H](CCC(N)=O)C(=O)N[C@@H](CCC(=O)O)C(=O)N[C@@H](CCCNC(=N)N)C(=O)NCC(=O)N[C@@H](C)C(N)=O)[C@@H](C)CC)C(C)C)[C@@H](C)O", "note": "[Example V, PGRF (1-40)-amide]", "values": [
      {"measurement": "biological potency (additional testing)", "result": "substantially twice the biological potency of the synthetic peptide tested in Example VII"}
    ]},
    {"smiles": "CC[C@H](C)[C@H](NC(=O)[C@H](C)NC(=O)[C@H](CC(=O)O)NC(=O)[C@H](C)NC(=O)[C@@H](N)Cc1ccc(O)cc1)C(=O)N[C@@H](Cc1ccccc1)C(=O)N[C@H](C(=O)N[C@@H](CC(N)=O)C(=O)N[C@@H](CO)C(=O)N[C@@H](Cc1ccc(O)cc1)C(=O)N[C@@H](CCCNC(=N)N)C(=O)N[C@@H](CCCCN)C(=O)N[C@H](C(=O)N[C@@H](CC(C)C)C(=O)NCC(=O)N[C@@H](CCC(N)=O)C(=O)N[C@@H](CC(C)C)C(=O)N[C@@H](CO)C(=O)N[C@@H](C)C(=O)N[C@@H](CCCNC(=N)N)C(=O)N[C@@H](CCCCN)C(=O)N[C@@H](CC(C)C)C(=O)N[C@@H](CC(C)C)C(=O)N[C@@H](CCC(N)=O)C(=O)N[C@@H](CC(=O)O)C(=O)N[C@H](C(=O)N[C@@H](CCSC)C(=O)N[C@@H](CO)C(=O)N[C@@H](CCCNC(=N)N)C(=O)N[C@@H](CCC(N)=O)C(=O)N[C@@H](CCC(N)=O)C(=O)NCC(=O)N[C@@H](CCC(=O)O)C(=O)N[C@@H](CO)C(=O)N[C@@H](CC(N)=O)C(=O)N[C@@H](CCC(N)=O)C(=O)N[C@@H](CCC(=O)O)C(=O)O)[C@@H](C)CC)C(C)C)[C@@H](C)O", "note": "[Example VI, PGRF (1-37)-free acid]", "values": [
      {"measurement": "biological potency (additional testing)", "result": "very substantial biological potency"}
    ]},
    {"smiles": "CC[C@H](C)[C@H](NC(=O)[C@H](C)NC(=O)[C@H](CC(=O)O)NC(=O)[C@H](C)NC(=O)[C@@H](N)Cc1ccc(O)cc1)C(=O)N[C@@H](Cc1ccccc1)C(=O)N[C@H](C(=O)N[C@@H](CC(N)=O)C(=O)N[C@@H](CO)C(=O)N[C@@H](Cc1ccc(O)cc1)C(=O)N[C@@H](CCCNC(=N)N)C(=O)N[C@@H](CCCCN)C(=O)N[C@H](C(=O)N[C@@H](CC(C)C)C(=O)NCC(=O)N[C@@H](CCC(N)=O)C(=O)N[C@@H](CC(C)C)C(=O)N[C@@H](CO)C(=O)N[C@@H](C)C(=O)N[C@@H](CCCNC(=N)N)C(=O)N[C@@H](CCCCN)C(=O)N[C@@H](CC(C)C)C(=O)N[C@@H](CC(C)C)C(=O)N[C@@H](CCC(N)=O)C(=O)N[C@@H](CC(=O)O)C(=O)N[C@H](C(=O)N[C@@H](CCSC)C(=O)N[C@@H](CO)C(=O)N[C@@H](CCCNC(=N)N)C(=O)N[C@@H](CCC(N)=O)C(=O)N[C@@H](CCC(N)=O)C(=O)NCC(=O)N[C@@H](CCC(=O)O)C(=O)N[C@@H](CO)C(=O)N[C@@H](CC(N)=O)C(=O)N[C@@H](CCC(N)=O)C(=O)N[C@@H](CCC(=O)O)C(=O)N[C@@H](CCCNC(=N)N)C(=O)NCC(=O)N[C@@H](C)C(=O)O)[C@@H](C)CC)C(C)C)[C@@H](C)O", "note": "[Native PGRF (1-40)]", "values": [
      {"measurement": "GH secretion in vitro % of controls", "setting": "Table I, 12.5 femtomoles", "result": "234 ± 17 % of controls"},
      {"measurement": "GH secretion in vitro % of controls", "setting": "Table I, 25 fmoles", "result": "351 ± 7 % of controls"},
      {"measurement": "GH secretion in vitro % of controls", "setting": "Table I, 50 fmoles", "result": "528 ± 16 % of controls"},
      {"measurement": "GH secretion in vitro % of controls", "setting": "Table I, 100 fmoles", "result": "720 ± 32 % of controls"},
      {"measurement": "GH secretion in vitro % of controls", "setting": "Table I, 200 fmoles", "result": "748 ± 7 % of controls"},
      {"measurement": "GH secretion in vitro % of controls", "setting": "Table III, 6.3 femtomoles", "result": "198 ± 5.9 % of controls"},
      {"measurement": "GH secretion in vitro % of controls", "setting": "Table III, 12.5 femtomoles", "result": "270 ± 2.4 % of controls"},
      {"measurement": "GH secretion in vitro % of controls", "setting": "Table III, 25.0 femtomoles", "result": "348 ± 3.4 % of controls"},
      {"measurement": "GH secretion in vitro % of controls", "setting": "Table III, 50.0 femtomoles", "result": "466 ± 0.9 % of controls"},
      {"measurement": "GH secretion in vitro % of controls", "setting": "Table III, 100.0 femtomoles", "result": "570 ± 17 % of controls"},
      {"measurement": "GH secretion in vitro % of controls", "setting": "Table III, 200.0 femtomoles", "result": "579 ± 2.1 % of controls"},
      {"measurement": "GH secretion in vitro % of controls", "setting": "Table III, 400.0 femtomoles", "result": "588 ± 10 % of controls"},
      {"measurement": "GH-releasing activity", "setting": "peptides isolated from human islet cell tumor", "result": "exhibit GH-releasing activity"}
    ]}
  ]
}
